In patent US4550118A, “Heterocyclic compounds” (Ikeda Mohando Co., Ltd., priority 1982, dated 1985):
Read-outs that look alike come from different tables or passages of the source.

Tests used:
[1] = test system: gastric mucus secretion; experiment: Effect on gastric mucus secretion in rats (alcian blue binding); assay type: in vivo, Wistar male rats; settings: 10 mg/kg × 2/day orally for 7 days, * significant at 5%, ** at 1%; for Alcian blue binding: 7 rats; for % Change (Alcian blue binding): vs control (0.5% CMC)
Protocol: The test compounds were administered orally to Wistar male rats weighing from 160 to 180 g so as to investigate the effect on gastric mucus secretion. The amount of mucus was determined using alcian blue color specifically bonding with acid mucosaccharides, and was expressed by the amount of color bonding with a unit weight (OD units/g tissue). The test compounds were administered at a dosage of 10 mg/kg twice a day for 7 days, and the rats were sacrificed one hour after the final administration in the morning on the 8th day by cervical dislocation. After laparatomy, the stomach was removed. After removal of the forestomach, an incision was made along the greater curvatura. The stomach was lightly washed with a 0.25M sucrose solution cooled with ice. The weight was determined after absorption of water with a filter paper.
Then, the stomach was exposed for 1.5 hrs in 10 ml of 0.25M sucrose solution containing 0.1% alcian blue 8 GX for staining. Then, the stained stomach was washed with 10 ml of a 0.25M sucrose for 15 min, being dipped in 15 ml of a 0.5M MgCl2 for 2 hrs so as to elute alcian blue combined with the mucus. Finally, 10 ml of ethyl ether was added, and the mixture was shaken vigorously. The floating substances were removed, and the aqueous layer was quantified by measuring the absorption at 605 nm.
The above procedures were carried out at room temperature.

[2] = test system: acid secretion in pylorus-ligated rats; experiment: Anti-secretory effect (histamine-stimulated gastric acid secretion) in pylorus-ligated rat; assay type: in vivo, male wistar rats; settings: Rattus norvegicus, sc, 3 h; 2 mg/kg s.c., 30 min before histamine 3 mg/kg s.c.; n=5; * significant at 5%, ** at 1% vs control; read-out: inhibitory effect of acid secretion (%) at 2 mg/kg s.c.
Protocol: (A) Anti-secretory Effect in Pylorus-ligated Rat
After 24 hr fasting, male wistar rats weighing about 160 g were anesthetized by intraperitoreal injection of urethans 1.2 g/kg. Then, after ligating the pylorus and the esophagus, the proventriculus was incised and a double polyethylene cannula was inserted. The gastric wall was washed out with 5 ml of physiological saline every 30 minutes and the amount of acid contained in the saline after washing was measured by titration. After measuring the basal acid secretion of the pylorus ligated rats three times, the compounds of the invention, 2 mg/kg, were administered subcutaneously and, 30 minutes thereafter, histamine 3 mg/kg, was administered also subcutaneously. Then, the amounts of acid secretion were measured for 3 hours. […] Then, an inhibition rate was calculated in accordance with the following formula, in relation to the increment values measured for the control group. [formula]
One group included five examples.

[3] = molecular target: T1, histamine H2 receptor in atria (Cavia porcellus, UniProt P47747); experiment: Histamine H2 receptor inhibition effect by isolated guinea pig right atrium preparation (negative chronotropic effect); assay type: cell-based, Male Hartley Guinea Pig; settings: 5×10^-6 mol sample 3 minutes prior to histamine, mean of five, read-out: inhibitory effect of histamine H2 receptor in atria (pA2 value) (converted)
T1 construct: right atrium was isolated; from tissue; host or cells: isolated right atrium of male Hartley guinea pig
Protocol: (B) Measurement of Histamine H2 Receptor Inhibition Effect by Isolated Guinea Pig Right Atrium Preparation
Male Hartley Guinea Pig weighing around 400 g was sacrified by decapitation, and right atrium was isolated. The right atrium was suspended in an organ bath (50 ml) containing modified Ringer solution. Under application of a tensile load of 1 g, the heart rate was recorded by means of a polygraph. Histamine was applied cumulatively from 1×10^-7 mol to 3×10^-4 mol and a cumulative dosage response curve was drawn. Then, 5×10^-6 mol of the sample was administered 3 minutes prios to histamine application. The negative logarithmic value (pA2) of the specimen molarity required for shifting the curve to the right to double concentration was calculated.

[4] = Acute oral toxicity test in mice (LD50, Litchfield-Wilcoxon); settings: mouse, in vivo
Protocol: Male dd-mice were divided into groups of 5 and fasted for 8 hours. The test compounds were administered orally to the mice weighing from 19.7 g. to 22.0 g. The mice were observed survival or death as well as the general symptoms over 7 days after the administration of the compounds. The value of LD50 for each compound was estimated from the mortality observed on the basis of the Litchfield-Wilcoxon method.
In a similar test, the test compound of example 27, 35, 66, 84, 97, 104, 118, 125 or 129 was administered orally to the mice at a dose of 1500 mg/kg.

[5] = test system: acid secretion in pylorus-ligated rats; experiment: Anti-secretory effect (histamine-stimulated gastric acid secretion) in pylorus-ligated rat; assay type: in vivo, male wistar rats; settings: for ED50: read-out: ED 50 (acid secretion inhibition); for acid secretion inhibition: 5 rats
[6] = oral, groups of 5, 7 days observation
[7] = similar test, oral dose of 1500 mg/kg

T1 sequence (P47747 whole entry): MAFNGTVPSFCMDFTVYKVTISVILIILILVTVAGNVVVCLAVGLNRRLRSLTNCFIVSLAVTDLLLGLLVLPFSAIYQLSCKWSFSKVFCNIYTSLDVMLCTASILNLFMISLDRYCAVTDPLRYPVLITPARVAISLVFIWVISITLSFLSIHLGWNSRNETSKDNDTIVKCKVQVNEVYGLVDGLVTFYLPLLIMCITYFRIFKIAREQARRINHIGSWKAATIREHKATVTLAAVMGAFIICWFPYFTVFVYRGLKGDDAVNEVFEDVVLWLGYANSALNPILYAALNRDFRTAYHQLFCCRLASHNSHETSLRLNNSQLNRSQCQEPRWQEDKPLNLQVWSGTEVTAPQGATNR

Compound	Alcian blue binding [1] [OD units/g tissue]	% Change (Alcian blue binding) [1]	inhibition in vivo at 2 mg/kg [2] [%]	Kb [3] [nM]	LD50 at 168 h [4, 7] [mg/kg]	other results
CNC(=NC#N)NCCCOc1ccc2[nH]c(NC(=N)N)nc2c1 [Example 8, N-cyano-N'-methyl-N"-[3-<5-(2-guanidinobenzimidazolyl)oxypropyl] guanidine]	0.55 ± 0.04	+52.5%				
CN(C)Cc1nc2cc(CSCCNc3n[s+]([O-])nc3N)ccc2[nH]1 (centres unmarked) [Example 103, 3-[2-<5-(2-dimethylaminomethylbenzimidazolyl)methylthio>ethyl]amino-4-amino-1,2,5-thiadiazol-1-oxide]	0.31 ± 0.02	+14.8%	98	575		LD50 at 168 h [4, 6]: > 4000 mg/kg
CN(C)Cc1cccc(Cc2cnc(NCCSCc3ccc4[nH]c(CN(C)C)nc4c3)[nH]c2=O)c1 [Example 78, 2-[2-<5-(2-dimethylaminomethylbenzimidazolyl)methylthio>ethylamino]-5-(3-dimethylaminomethylbenzyl)-4-pyrimidone]	0.45 ± 0.04	+24.6%	107	1780		
CN(C)Cc1nc2cc(CSCCNc3nc(N)nn3C)ccc2[nH]1 [Example 97, 1-methyl-5-[2-<5-(2-dimethylaminomethylbenzimidazolyl)-methylthio>ethyl]-1H-1,2,4-triazole-3,5-diamine]	0.49 ± 0.02	+37.4%	76	891	> 1500	
CN(C)Cc1cccc(Cc2cnc(NCCCOc3ccc4[nH]c(CN(C)C)nc4c3)[nH]c2=O)c1 [Example 70, 2-[3-<5-(2-dimethylaminomethylbenzimidazolyl)oxy>propylamino]-5-(3-dimethylaminomethylbenzyl)-4-pyrimidone]			102	2450		LD50 at 168 h [4, 6]: 2800 mg/kg; effective ratio ([5]; ED50 relative to cimetidine = 1.0): 25.2; ED50 ([5]; Rattus norvegicus, sc, pylorus-ligated rats, 95% confidence limit printed on following lines): 0.11 µmol/kg; acid secretion inhibition ([5]; Table 2, dosage 0.067 μmol/kg): 35%; acid secretion inhibition ([5]; Table 2, dosage 0.204 μmol/kg): 71%; acid secretion inhibition ([5]; Table 2, dosage 0.613 μmol/kg): 93%
CNC(=C[N+](=O)[O-])NCCCOc1ccc2[nH]c(CN(C)C)nc2c1 [Example 27, 1-nitro-2-methylamino-2-[3-<5-(2-dimethylaminomethylbenzimidazolyl)oxy>propylamino]ethylene]			73	16200	> 1500	
CNC(=NC#N)NCCSCc1ccc2[nH]c(CN(C)C)nc2c1 [Example 35, N-cyano-N'-methyl-N"-[2-<5-(2-dimethylaminomethylbenzimidazolyl)methylthio>ethyl]guanidine]			64	646	> 1500	
CN(C)Cc1nc2cc(CSCCC(N)=NC(N)=O)ccc2[nH]1 [Example 129, N-carbamoyl-3-[5-(2-dimethylaminomethylbenzimidazolyl)methylthio]propionamidine]			72	759	> 1500	
CN/C(=N/CCSCc1nc[nH]c1C)NC#N [Cimetidine, cimetidine, reference compound]						inhibition in vivo at 2 mg/kg ([5]; Rattus norvegicus, sc, 3 h, read-out: inhibitory effect of acid secretion (%) at 2 mg/kg s.c.): 63%; ED50 ([5]; Rattus norvegicus, sc): 2.77 µmol/kg; acid secretion inhibition ([5]; Table 2, dosage 2.0 μmol/kg): 37%; acid secretion inhibition ([5]; Table 2, dosage 5.9 μmol/kg): 75%; acid secretion inhibition ([5]; Table 2, dosage 17.8 μmol/kg): 83%
